# Read-outs that look alike come from different tables or passages of the source.
# Columns and labels:
# [1] = molecular target: T1, apoaequorin (Aequorea victoria, UniProt P07164); format: biochemical
# T1 construct: OmpA signal peptide (N, cleaved yes); made in house; host or cells: Escherichia coli strain WA802
# Procedure: Apoaequorin (0.5 mg, 22 nmol) was mixed with 10 μl of coelenteramide (1.2 μg/μl, 29 nmol, in anhydrous methanol) in 1 ml of 50 mM Tris-HCl (pH 7.6) containing 10 mM CaCl2 and 1 mM DTT. […] Subsequently, syn-BFP was treated at 4° C., 5,000×g for 20 minutes using centrifugal concentrator Vivaspin 2 (10,000 MWCO, Sartorius AG, Germany) to concentrate the mixture to 0.1 ml.
# Regarding the production of synthetic gFP (syn-gFP) from apoaequorin and coelenteramide, apoaequorin (0.5 mg, 22 nmol) was mixed with 10 μl of coelenteramide (1.2 μg/μl, 29 nmol, in anhydrous methanol) in 1 ml of 50 mM Tris-HCl (pH 7.6) containing 10 mM EDTA and 1 mM DTT. […]
# Absorption spectra were measured at 25° C. with a Jasco (Tokyo, Japan) V-560 spectrophotometer (bandwidth: 0.5 nm, response, medium; scan speed, 100 nm/min.) using a quartz cuvette (10 mm light path). Also, fluorescence spectra were measured on a Jasco FP-6500 fluorescence spectrophotometer (emission/excitation bandwidth: 3 nm, response: 0.5 sec., scan speed: 1000 nm/min.).
# T1 sequence (P07164 other isoform, or with tags, fused parts or gaps with the stated changes): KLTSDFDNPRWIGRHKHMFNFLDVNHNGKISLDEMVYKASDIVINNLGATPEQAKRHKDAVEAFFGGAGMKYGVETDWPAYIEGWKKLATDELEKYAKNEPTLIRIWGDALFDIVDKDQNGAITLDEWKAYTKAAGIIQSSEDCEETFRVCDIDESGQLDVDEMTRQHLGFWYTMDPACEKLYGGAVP
SMILES,"Fluorescence intensity (rlu) (excited at 332 nm) ([1]; 10 mM Ca^2+ (Imax, 465 nm), +DTT, 0 hr)","Fluorescence intensity (rlu) (excited at 332 nm) ([1]; 10 mM Ca^2+ (Imax, 465 nm), +DTT, 0.5 hr)","Fluorescence intensity (rlu) (excited at 332 nm) ([1]; 10 mM Ca^2+ (Imax, 465 nm), +DTT, 16 hrs)","Fluorescence intensity (rlu) (excited at 332 nm) ([1]; 10 mM Ca^2+ (Imax, 465 nm), -DTT series, then +DTT, 24 hrs)","Fluorescence intensity (rlu) (excited at 332 nm) ([1]; 10 mM Ca^2+ (Imax, 465 nm), -DTT, 0 hr)","Fluorescence intensity (rlu) (excited at 332 nm) ([1]; 10 mM Ca^2+ (Imax, 465 nm), -DTT, 16 hrs)","Fluorescence intensity (rlu) (excited at 332 nm) ([1]; 10 mM EDTA (Imax, 469.5 nm), +DTT, 0 hr)","Fluorescence intensity (rlu) (excited at 332 nm) ([1]; 10 mM EDTA (Imax, 469.5 nm), +DTT, 0.5 hr)","Fluorescence intensity (rlu) (excited at 332 nm) ([1]; 10 mM EDTA (Imax, 469.5 nm), +DTT, 16 hrs)","Fluorescence intensity (rlu) (excited at 332 nm) ([1]; 10 mM EDTA (Imax, 469.5 nm), -DTT series, then +DTT, 24 hrs)","Fluorescence intensity (rlu) (excited at 332 nm) ([1]; 10 mM EDTA (Imax, 469.5 nm), -DTT, 0 hr)","Fluorescence intensity (rlu) (excited at 332 nm) ([1]; 10 mM EDTA (Imax, 469.5 nm), -DTT, 16 hrs)",melting point [°C]
"O=C(Cc1ccc(O)cc1)Nc1ncc(-c2ccc(O)cc2)nc1Cc1ccccc1 [Coelenteramide, coelenteramide]",25.4,28.4,29.5,22.0,9.8,11.3,20.2,22.7,23.1,24.3,14.8,18.7,
"COc1ccc(CC(=O)Nc2ncc(-c3ccc(OC)cc3)nc2Cc2ccccc2)cc1 [IV, coelenteramide dimethyl ether]",,,,,,,,,,,,,189.5 to 191
